1 compound from the NIST ThermoML archive (doi:10.1021/je100315g) can be followed below.

Numbers after ± are expanded uncertainties.

The conditions of this data set: 101 kPa, Liquid.

With `CCn1cc[n+](C)c1.O=S(=O)([N-]S(=O)(=O)C(F)(F)F)C(F)(F)F`, the mass density (as a rule, the mass of a sample divided by its volume) (293.15 K) is reported as 1522.08 ± 0.95 kg/m3; the mass density (298.15 K) is listed as 1516.96 ± 0.94 kg/m3; the mass density (303.13 K) was 1511.85 ± 0.93 kg/m3; the mass density (308.15 K) is 1506.8 ± 0.92 kg/m3; the mass density (313.15 K) stood at 1501.74 ± 0.91 kg/m3.
